Assay results taken from the supplement of paper PMC11451515.

Test system: SEM cells
Assay: cell viability relative to DMSO control; higher = less cytotoxic
Details: 48 h
Summary of the method: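 NOMO1 or SEM (500 cells/well) or P12-Ichikawa (1000 cells/well) leukemia cells were adapted for at least four passages in each medium. They were seeded in 1536-well plates (5 μl) and pin-dosed with library compounds in DMSO over an 11-point threefold series, 47 μM to 0.79 nM. CellTiter-Glo One luminescence was read after 48 h at 37°C. Viability is the per-plate percentage relative to DMSO wells, with cell-free wells as background.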

[1] = HPLM + 10% dialyzed FBS, 0.000781 µM
[2] = HPLM + 10% dialyzed FBS, 0.00234 µM
[3] = HPLM + 10% dialyzed FBS, 0.00702 µM
[4] = HPLM + 10% dialyzed FBS, 0.0211 µM
[5] = HPLM + 10% dialyzed FBS, 0.0632 µM
[6] = HPLM + 10% dialyzed FBS, 0.19 µM
[7] = HPLM + 10% dialyzed FBS, 0.569 µM
[8] = HPLM + 10% dialyzed FBS, 1.71 µM
[9] = HPLM + 10% dialyzed FBS, 5.12 µM
[10] = HPLM + 10% dialyzed FBS, 15.4 µM
[11] = HPLM + 10% dialyzed FBS, 46.1 µM
[12] = RPMI 5 mM glucose + 10% FBS, 0.000781 µM
[13] = RPMI 5 mM glucose + 10% FBS, 0.00234 µM
[14] = RPMI 5 mM glucose + 10% FBS, 0.00702 µM
[15] = RPMI 5 mM glucose + 10% FBS, 0.0211 µM
[16] = RPMI 5 mM glucose + 10% FBS, 0.0632 µM
[17] = RPMI 5 mM glucose + 10% FBS, 0.19 µM
[18] = RPMI 5 mM glucose + 10% FBS, 0.569 µM
[19] = RPMI 5 mM glucose + 10% FBS, 1.71 µM
[20] = RPMI 5 mM glucose + 10% FBS, 5.12 µM
[21] = RPMI 5 mM glucose + 10% FBS, 15.4 µM
[22] = RPMI 5 mM glucose + 10% FBS, 46.1 µM
[23] = RPMI 5 mM glucose + 10% dialyzed FBS, 0.000781 µM
[24] = RPMI 5 mM glucose + 10% dialyzed FBS, 0.00234 µM
[25] = RPMI 5 mM glucose + 10% dialyzed FBS, 0.00702 µM
[26] = RPMI 5 mM glucose + 10% dialyzed FBS, 0.0211 µM
[27] = RPMI 5 mM glucose + 10% dialyzed FBS, 0.0632 µM
[28] = RPMI 5 mM glucose + 10% dialyzed FBS, 0.19 µM
[29] = RPMI 5 mM glucose + 10% dialyzed FBS, 0.569 µM
[30] = RPMI 5 mM glucose + 10% dialyzed FBS, 1.71 µM
[31] = RPMI 5 mM glucose + 10% dialyzed FBS, 5.12 µM
[32] = RPMI 5 mM glucose + 10% dialyzed FBS, 15.4 µM
[33] = RPMI 5 mM glucose + 10% dialyzed FBS, 46.1 µM

SMILES | cell viability [1] [%] | cell viability [2] [%] | cell viability [3] [%] | cell viability [4] [%] | cell viability [5] [%] | cell viability [6] [%] | cell viability [7] [%] | cell viability [8] [%] | cell viability [9] [%] | cell viability [10] [%] | cell viability [11] [%] | cell viability [12] [%] | cell viability [13] [%] | cell viability [14] [%] | cell viability [15] [%] | cell viability [16] [%] | cell viability [17] [%] | cell viability [18] [%] | cell viability [19] [%] | cell viability [20] [%] | cell viability [21] [%] | cell viability [22] [%] | cell viability [23] [%] | cell viability [24] [%] | cell viability [25] [%] | cell viability [26] [%] | cell viability [27] [%] | cell viability [28] [%] | cell viability [29] [%] | cell viability [30] [%] | cell viability [31] [%] | cell viability [32] [%] | cell viability [33] [%]
Cn1cc(-c2ccc3nnc(C(F)(F)c4ccc5ncccc5c4)n3n2)cn1 | 103 | 117 | 115 | 99.6 | 111 | 108 | 113 | 106 | 106 | 95.4 | 82 | 123 | 115 | 120 | 112 | 126 | 132 | 126 | 123 | 114 | 121 | 81.5 | 96 | 114 | 104 | 102 | 105 | 111 | 98.6 | 97.2 | 94.8 | 90.5 | 67.2
CC(=O)N1CCN(c2ccc(OCc3nn(C)c(C)c3-c3cccc4c(CCCOc5cccc6ccccc56)c(C(=O)O)n(Cc5cccnc5)c34)cc2)CC1 | 92.6 | 91.9 | 106 | 112 | 107 | 126 | 115 | 120 | 122 | 108 | 108 | 87.6 | 78 | 86.4 | 93.6 | 81.8 | 103 | 108 | 115 | 105 | 104 | 84.7 | 101 | 85.1 | 115 | 112 | 119 | 127 | 112 | 115 | 109 | 113 | 104
O=C(Nc1cccc(Nc2ncc(Br)c(NCCc3cnc[nH]3)n2)c1)N1CCCC1 | 77.4 | 78.4 | 79.3 | 72.1 | 67.4 | 47.5 | 32.7 | 17.4 | 9.22 | 5.65 | 1.1 | 87.7 | 77.9 | 80.5 | 75.9 | 69.1 | 41 | 21.1 | 8.73 | 3.21 | 1.59 | 1.07 | 82.5 | 62.9 | 71 | 64.2 | 66.9 | 38.6 | 26.6 | 12.8 | 7.16 | 3.89 | 1.39
CC(=O)CC(C1=CC=CC=C1)C/2=C(O)/C3=CC=CC=C3OC2=O (stereo unspecified) | 80.7 | 101 | 114 | 71.7 | 119 | 114 | 103 | 110 | 116 | 113 | 120 | 110 | 104 | 105 | 73.1 | 105 | 105 | 115 | 118 | 115 | 125 | 137 | 84.4 | 103 | 114 | 73.4 | 111 | 123 | 119 | 125 | 128 | 126 | 123
CCOc1cc(N)c(Cl)cc1C(=O)NCC1CN(Cc2ccc(F)cc2)CCO1 (stereo unspecified) | 85.4 | 110 | 104 | 100 | 109 | 112 | 128 | 114 | 118 | 119 | 132 | 99.8 | 113 | 107 | 116 | 114 | 114 | 95.5 | 115 | 109 | 94.7 | 90.3 | 113 | 110 | 100 | 109 | 119 | 122 | 112 | 115 | 105 | 104 | 92.5
[NH2][Pt]([NH2])([Cl])[Cl] | 93.8 | 96 | 94.5 | 95.2 | 107 | 99.4 | 92.2 | 89.6 | 79.1 | 70.9 | 62.1 | 82.9 | 105 | 101 | 93.2 | 102 | 98.8 | 118 | 71 | 70.9 | 65.1 | 52.4 | 85 | 85.3 | 88.1 | 89.5 | 86.8 | 97.8 | 88.1 | 74.3 | 65.9 | 55.3 | 51.8
COc1cc(Nc2ncc(F)c(Nc3ccc4c(n3)NC(=O)C(C)(C)O4)n2)cc(OC)c1OC | 87.1 | 99 | 106 | 123 | 106 | 103 | 95.8 | 57.7 | 6.83 | 4.48 | 4.63 | 57.5 | 73 | 70.6 | 70.4 | 68.4 | 70.6 | 55 | 34.9 | 3.27 | 3.07 | 3.1 | 95 | 111 | 101 | 95.2 | 89.8 | 104 | 91.2 | 49.4 | 9.48 | 3.83 | 4.35
CCc1c(C(=O)C(N)=O)c2c(OCC(=O)O)cccc2n1Cc1ccccc1 | 103 | 93.2 | 94.3 | 107 | 98.7 | 104 | 102 | 98.2 | 90.8 | 88.3 | 84.5 | 101 | 100 | 116 | 110 | 90.8 | 98.4 | 111 | 111 | 114 | 88.4 | 82.6 | 92.9 | 102 | 104 | 116 | 104 | 105 | 123 | 92.7 | 106 | 91.9 | 89.3
Cc1nccn1CC1CCc2c(c3ccccc3n2C)C1=O (stereo unspecified) | 118 | 120 | 135 | 132 | 142 | 120 | 110 | 117 | 104 | 116 | 92 | 121 | 119 | 127 | 114 | 115 | 105 | 127 | 104 | 108 | 109 | 85.4 | – | – | – | – | – | – | – | – | – | – | –
C\C1=C\N([C@H]2C[C@H](N=[N+]=[N-])[C@@H](CO)O2)C(=O)NC1=O | 65.4 | 68.8 | 82.4 | 71 | 80.8 | 93.1 | 95.4 | 86.5 | 81.6 | 84.3 | 79.3 | 82.5 | 85.6 | 88.9 | 89.3 | 84.8 | 101 | 88.4 | 104 | 92.2 | 101 | 82.2 | 72.2 | 83.9 | 96 | 98.4 | 117 | 92 | 105 | 71.8 | 93.2 | 85.7 | 62.4
OC(=O)\C1=C\N(C2=CC=C(F)C=C2)C3=C(C=C(F)C(=C3)N4CCNCC4)C1=O | 89.5 | 101 | 100 | 101 | 105 | 90.7 | 82.4 | 89.4 | 86.4 | 90 | 93.9 | 101 | 108 | 120 | 92.1 | 114 | 112 | 97.2 | 95.7 | 110 | 113 | 103 | 103 | 103 | 112 | 125 | 107 | 111 | 87.5 | 113 | 95.3 | 95.1 | 87.3
c1cc(CN2CCCNCCNCCCNCC2)ccc1CN1CCCNCCNCCCNCC1 | 83.6 | 85.7 | 86.8 | 20.1 | 94.3 | 101 | 89.8 | 96.9 | 106 | 116 | 110 | 70.8 | 93.3 | 83.8 | 13.6 | 85.7 | 92.9 | 87.1 | 90.8 | 94.1 | 91.5 | 89 | 94.1 | 84.4 | 94.2 | 20 | 117 | 118 | 106 | 115 | 102 | 125 | 119
Cc1cccc(C#Cc2ccccc2)n1 | 119 | 140 | 123 | 134 | 132 | 117 | 137 | 134 | 116 | 106 | 89.5 | 128 | 118 | 109 | 123 | 128 | 118 | 128 | 121 | 102 | 105 | 84.4 | – | – | – | – | – | – | – | – | – | – | –
CC(C)Nc1cc(C(F)(F)F)cc2nc(NC(=O)c3cccnc3)nn12 | 113 | 105 | 101 | 118 | 119 | 96.6 | 102 | 42.3 | 26.5 | 13.7 | 5.96 | 113 | 112 | 95.3 | 110 | 107 | 89.2 | 94.2 | 18 | 15.8 | 8.3 | 2.38 | 126 | 98.6 | 116 | 113 | 102 | 94 | 101 | 23.2 | 16.3 | 11.1 | 4.75
NC(=O)c1ncn([C@@H]2O[C@H](CO)[C@@H](O)[C@H]2O)n1 | 96.4 | 110 | 116 | 119 | 104 | 106 | 101 | 106 | 117 | 117 | 80.4 | 105 | 115 | 118 | 115 | 112 | 115 | 95.2 | 95.9 | 103 | 123 | 76.9 | 106 | 118 | 121 | 110 | 113 | 108 | 104 | 118 | 111 | 142 | 85.7
CN1CCC(CC1)COC2=CN=C(N=C2)C3=CC(=CC=C3)CN4/N=C(\C=C/C4=O)C5=CC(=CC=C5)C#N | 78.8 | 105 | 98 | 102 | 112 | 117 | 108 | 104 | 107 | 89.9 | 92.7 | 67.6 | 87.1 | 85.4 | 66.2 | 67.5 | 75.6 | 79.9 | 74.7 | 66.5 | 74.9 | 73.2 | 69.8 | 103 | 110 | 114 | 99.2 | 91.4 | 115 | 104 | 106 | 87.3 | 105
